Assays:
[1] = tested on: Aβ42; assay: Screening for γ-secretase-modulating activity, Method 1: Aβ42 sandwich ELISA in supernatant of SKNBE2 cells carrying APP 695 wild type (Tables 12a, 12b); assay type: cell-based
Method in brief: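 Aβ42 levels in the supernatant were measured by ELISA with 450 nm colorimetric read-out after 18 h compound exposure of wild-type APP695 SKNBE2 cells plated one day earlier. IC50 was fitted with a 4-parameter model, either with fixed top/bottom and a Hill slope of 1, or as averaged values from % of vehicle control; WST-1 was used to flag cytotoxicity.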

[2] = tested on: Aβtotal; assay: Screening for γ-secretase-modulating activity, Method 1: Aβtotal sandwich ELISA in supernatant of SKNBE2 cells carrying APP 695 wild type (Tables 12a, 12b); assay type: cell-based
Method in brief: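 Aβtotal in conditioned medium was measured by 6E10/biotin-4G8 sandwich ELISA with fluorogenic peroxidase read-out. Cells were wild-type APP 695 SKNBE2, treated 18 hours in glutamine-supplemented Ultraculture. IC50 came from 4-parameter fits of inhibition, or percent of control, against concentration; toxicity was checked by WST-1.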

[3] = Homo sapiens, Method 1, Table 12a, SKNBE2 cells carrying APP 695 wild type, compounds 18 hours, ELISA, curve top and bottom fixed to 100 and 0, hill slope 1
[4] = Homo sapiens, Table 12b, Method 1, SKNBE2 cells carrying APP 695 wild type, cell supernatant ELISA, averaged IC50 values, percentage of control vs log concentration
[5] = Homo sapiens, Table 12b, Method 1, SKNBE2 cells carrying APP 695 wild type, cell supernatant ELISA, averaged IC50 values

Row | IC50 [1, 3] [nM] | IC50 [1, 4] [nM] | IC50 [2, 3] [nM] | IC50 [2, 5] [nM] | melting point [°C] | IC50 ([1]; Table 12b, Method 1, SKNBE2 cells carrying APP 695 wild type, cell supernatant ELISA, averaged IC50 values, percentage of control vs log concentration) [nM] | IC50 ([2]; Table 12b, Method 1, SKNBE2 cells carrying APP 695 wild type, cell supernatant ELISA, averaged IC50 values) [nM] | Structure (SMILES)
1 | 101 | 98 | > 5000 | > 5010 | 209.2 | – | – | COc1cc(Nc2cccn3cc(-c4ccc(F)cc4)nc23)ccc1-n1cnc(C)c1 [Compound 1]
2 | 65 | 55 | > 3000 | > 3020 | 168.9 | – | – | COc1cc(Nc2cccn3c(Cl)c(-c4ccc(F)cc4)nc23)ccc1-n1cnc(C)c1 [Compound 2]
3 | 53 | 85 | > 3000 | > 3020 | – | – | – | COc1cc(Nc2cccn3cc(C4CCOCC4)nc23)ccc1-n1cnc(C)c1 [Compound 4]
4 | 14 | 12 | > 1000 | > 3020 | 177.8 | – | – | COc1cc(Nc2cccn3c(C)c(-c4ccccc4)nc23)ccc1-n1cnc(C)c1 [Compound 5]
5 | 12 | 11 | > 3000 | > 3020 | 204 | – | – | COc1cc(Nc2cccn3c(C)c(-c4ccccc4Cl)nc23)ccc1-n1cnc(C)c1 [Compound 15]
6 | 25 | 25 | > 3000 | > 3020 | 198.2 | – | – | COc1cc(Nc2cccn3c(C)c(-c4c(F)cccc4F)nc23)ccc1-n1cnc(C)c1 [Compound 27]
7 | 10 | 8 | > 1000 | > 10000 | – | – | – | COc1cc(Nc2cccn3c(C)c(-c4ccccc4C(F)(F)F)nc23)ccc1-n1cnc(C)c1 [Compound 29]
8 | 31 | 27 | > 3000 | > 3020 | – | – | – | COc1cccc(-c2cn3cccc(Nc4ccc(-n5cnc(C)c5)c(OC)c4)c3n2)c1 [Compound 33]
9 | 253 | 251 | > 3000 | > 5010 | – | – | – | COc1cc(Nc2cccn3cc(C)nc23)ccc1-n1cnc(C)c1 [Compound 50]
10 | 288 | – | > 3000 | – | – | – | – | Cc1ncn(-c2ccc(Nc3cccn4cc(-c5ccccc5C)nc34)cc2)n1 [Compound 71]
11 | – | – | – | – | – | 9 | > 3020 | COc1nc(Nc2cccn3c(C)c(-c4ccccc4C(F)(F)F)nc23)ccc1-n1cnc(C)c1 [Compound 138]

From patent publication US8546440B2, “Substituted bicyclic imidazole derivatives as gamma secretase modulators” (Janssen Pharmaceuticals, Inc., priority 2008, dated 2013)
